Literature values as cited in paper PMC9782211 (Microorganisms, 2022).

System: hERG channels
Settings: cited from earlier work
Excerpt: Inhibition of the potassium current flowing through the cardiac hERG ion channel (Kv11.1) has been correlated to life threatening torsades de pointes cardiac arrhythmia. Effects on hERG channel currents have been observed for a number of drugs, including antihistamines, antipsychotics, and many other drugs from nearly all therapeutic areas and chemical classes, and have become a serious safety concern in drug discovery and development. Inhibition of hERG channel currents have also been reported for antibiotics, in particular for macrolides, raising concerns about the cardiac safety of a ...

Substance: BeKm-1
- block of hERG channels: high affinity
